Results from patent US20210171568A1, “CRYSTALLINE FORMS OF SELECTIVE PROGESTERONE RECEPTOR MODULATOR, PROCESSES FOR PREPARATION THEREOF” (Crystal Pharmaceutical (Suzhou) Co., Ltd., priority 2017, published 2021).
“Also recorded” adds a separate entry of the source. Like-named read-outs stand apart in the source and are kept apart here.

Key:
Type in all cases: physicochemical
Residual solvents test = assay: Residual solvents test
Procedure: Residual solvents of Form CS2, Form CS4 and the prior art amorphous were tested. […] According to the guideline of the International Council for Harmonization (ICH) on residual solvents, dichloromethane belongs to Class 2 solvents, and the residual solvent content must not exceed 600 ppm. It can be seen that the residue of dichloromethane in the amorphous solid is much higher than the limits of ICH guideline, and the amorphous not suitable for use as drug substance.

[1] = Hygroscopicity by dynamic vapor sorption (DVS); settings: for Weight gain under 80% Relative Humidity (Hygroscopicity): DVS, 25° C., 80% RH, about 10 mg of sample; for hygroscopicity as share of that of the prior art solid: relative to prior art solid, weight gain at 80% RH
Procedure: Dynamic Vapor Sorption (DVS) was collected via an SMS (Surface Measurement Systems Ltd.) intrinsic DVS instrument. Its control software is DVS-Intrinsic control software, and its analysis software is DVS-Intrinsic Analysis software. Typical Parameters for DVS test are as follows: • Temperature: 25° C. • Gas and flow rate: N2, 200 mL/min • dm/dt: 0.002%/min • RH range: 0% RH to 95% RH
Dynamic vapor sorption (DVS) was applied to test hygroscopicity of Form CS2, Form CS4 and the prior art amorphous with about 10 mg of samples.

[2] = Physical stability on storage (crystalline form by XRPD before and after storage)
Procedure: (§1) Samples of Form CS2, Form CS4 and the prior art amorphous were stored under condition of 25° C./60% RH (open). Crystalline form and chemical impurity were tested.
(§2) Samples of Form CS2, Form CS4 and the prior art amorphous were stored under condition of 40° C./75% RH (open). Crystalline form and chemical impurity were tested.
(§3) Samples of Form CS2, Form CS4 and the prior art amorphous were stored under condition of 60° C./75% RH (open). Crystalline form and chemical impurity were tested.

[3] = Chemical stability on storage (purity / chemical impurity); settings: for Change of Purity: versus initial purity
Procedure: as §1, §2, §3

[4] = Particle size distribution; settings: in Isopar G containing 0.2% lecithin
Procedure: Form CS2 and Form CS4 of the present disclosure were added into 10 mL of Isopar G (containing 0.2% lecithin). The mixture was mixed thoroughly and transferred into the SDC. The measurement was started when the sample amount indicator is in appropriate position. The average particle diameter calculated by volume, the diameter at which 10% mass is comprised of smaller particles, the diameter at which 50% mass is comprised of smaller particles and the diameter at which 90% mass is comprised of smaller particles were obtained in particle size distribution test. Subsequently, the particle size distribution plot of crystalline forms was obtained.
MV: Average particle diameter calculated by volume.
D10: the size in microns below which 10 percent of the particles reside on a volume basis.
D50: the size in microns below which 50 percent of the particles reside on a volume basis, also known as the median diameter.
D90: the size in microns below which 90 percent of the particles reside on a volume basis.

[5] = 60° C./75% RH (open), 2 weeks, listed as prior art amorphous

Residual solvents (in words) (Residual solvents test) | Weight gain under 80% Relative Humidity (Hygroscopicity) [1] [%] | Purity after 6 Months ([3]; 25° C./60% RH (open), 6 months) [%] | Change of Purity ([3]; 25° C./60% RH (open), 6 months) [%] | Purity after 3 Months ([3]; 40° C./75% RH (open), 3 months) [%] | Change of Purity ([3]; 40° C./75% RH (open), 3 months) [%] | Purity after 2 Weeks ([3]; 60° C./75% RH (open), 2 weeks) [%] | Change of Purity ([3]; 60° C./75% RH (open), 2 weeks) [%] | D10 [4] [μm] | D50 [4] [μm] | D90 [4] [μm] | MV, average particle diameter calculated by volume [4] [μm] | hygroscopicity as share of that of the prior art solid [1] | SMILES | Solid Form after Storage ([2]; 25° C./60% RH (open), 6 months) | Solid Form after Storage ([2]; 40° C./75% RH (open), 6 months) | Solid Form after Storage ([2]; 60° C./75% RH (open), 2 weeks) | also measured
significantly higher than specification | 1.89 | 97.88 | 0.80 | 97.60 | 1.08 | 97.70 | 0.98 | – | – | – | – | – | C[C@]12C[C@H](c3ccc(S(C)(=O)=O)cc3)C3=C4CCC(=O)C=C4CC[C@H]3[C@@H]1CC[C@@]2(O)C(F)(F)C(F)(F)F [Amorphous, (11β, 17β)-17-hydroxy-11-[4-(methylsulfonyl)phenyl]-17-(pentafluoroethyl)estra-4,9-diene-3-one, reference compound] | Amorphous | Amorphous + Form CS2 | Amorphous + Form CS2 | dichloromethane residue (Residual solvents test; ICH limit 600 ppm): 64185 ppm; Residual solvents (in words) (Residual solvents test; listed as prior art): exceeds the standard; Weight gain under 80% Relative Humidity (Hygroscopicity) ([1]; listed as prior art solids): up to 1.89%; Solid Form after Storage ([2]; 40° C./75% RH (open), 6 months, listed as prior art amorphous): partially converted to Form CS2; Solid Form after Storage ([2]; 40° C./75% RH (open), 6 months, listed as prior art solid): partially converts to Form CS2; Solid Form after Storage [2, 5]: partially converted to Form CS2; Solid Form after Storage ([2]; 60° C./75% RH (open), 2 weeks, listed as prior art solid): partially converts to Form CS2; Change of Purity ([3]; 25° C./60% RH (open), 6 months, listed as amorphous): 0.80%; Change of Purity ([3]; 25° C./60% RH (open), 6 months, listed as prior art amorphous): 0.80%; stability on storage (in words) ([3]; 25° C./60% RH, 40° C./75% RH and 60° C./75% RH): unstable; Change of Purity ([3]; 40° C./75% RH (open), 3 months, listed as amorphous): 1.08%; Change of Purity ([3]; 40° C./75% RH (open), 3 months, listed as prior art amorphous): 1.08%; Change of Purity ([3]; 60° C./75% RH (open), 2 weeks, listed as amorphous): 0.98%; Change of Purity [3, 5]: 0.98%
almost no residual solvent | 0.12 | 99.31 | 0.13 | 99.42 | 0.02 | 99.47 | 0.03 | 2.32 | 6.20 | 23.12 | 11.41 | less than 10% | C[C@]12C[C@H](c3ccc(S(C)(=O)=O)cc3)C3=C4CCC(=O)C=C4CC[C@H]3[C@@H]1CC[C@@]2(O)C(F)(F)C(F)(F)F [Form CS4, (11β, 17β)-17-hydroxy-11-[4-(methylsulfonyl)phenyl]-17-(pentafluoroethyl)estra-4,9-diene-3-one] | remain unchanged; also recorded: Form CS4 | remain unchanged; also recorded: Form CS4 | remain unchanged; also recorded: Form CS4 | Change of Purity ([3]; 25° C./60% RH (open), 6 months, listed as CS4): 0.13%; Change of Purity ([3]; 40° C./75% RH (open), 3 months, listed as CS4): 0.02%; Change of Purity ([3]; 60° C./75% RH (open), 2 weeks, listed as CS4): 0.03%
almost no residual solvent | 0.23 | 98.58 | 0.06 | 98.37 | 0.27 | 98.59 | 0.05 | 3.09 | 8.41 | 27.45 | 13.16 | less than 15% | C[C@]12C[C@H](c3ccc(S(C)(=O)=O)cc3)C3=C4CCC(=O)C=C4CC[C@H]3[C@@H]1CC[C@@]2(O)C(F)(F)C(F)(F)F [Form CS2, (11β, 17β)-17-hydroxy-11-[4-(methylsulfonyl)phenyl]-17-(pentafluoroethyl)estra-4,9-diene-3-one] | remain unchanged; also recorded: Form CS2 | remain unchanged; also recorded: Form CS2 | remain unchanged; also recorded: Form CS2 | Change of Purity ([3]; 25° C./60% RH (open), 6 months, listed as CS2): 0.06%; Change of Purity ([3]; 40° C./75% RH (open), 3 months, listed as CS2): 0.27%; Change of Purity ([3]; 60° C./75% RH (open), 2 weeks, listed as CS2): 0.05%
